Kd data for one molecule are collected here from PMC5499824 (Nucleic Acids Research, 2017).

Residue numbers refer to the chain shown, from its start.

Test [1] deals with T1, hNSun6 (Homo sapiens, UniProt Q8TEA1).
T1 sequence (Q8TEA1 1-469): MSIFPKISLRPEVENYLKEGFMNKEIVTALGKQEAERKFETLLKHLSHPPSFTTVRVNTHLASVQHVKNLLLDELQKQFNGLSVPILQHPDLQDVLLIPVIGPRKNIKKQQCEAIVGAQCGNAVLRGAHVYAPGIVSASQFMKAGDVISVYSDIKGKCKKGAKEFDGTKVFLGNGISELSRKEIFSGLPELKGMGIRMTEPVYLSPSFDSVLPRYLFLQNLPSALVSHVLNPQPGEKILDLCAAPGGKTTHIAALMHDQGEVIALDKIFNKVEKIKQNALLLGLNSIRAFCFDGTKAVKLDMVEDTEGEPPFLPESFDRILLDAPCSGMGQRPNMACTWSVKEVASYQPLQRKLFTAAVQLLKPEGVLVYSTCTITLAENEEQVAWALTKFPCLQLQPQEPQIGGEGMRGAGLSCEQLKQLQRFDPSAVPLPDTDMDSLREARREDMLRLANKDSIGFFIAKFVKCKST
In words: isothermal titration calorimetry. In kind it is binding.

In test [2] the target is T2, hNSun6 (Homo sapiens, UniProt Q8TEA1, K248A).
T2 sequence (Q8TEA1 1-469 K248A): T1 sequence (Q8TEA1 1-469) with K248A
In words: isothermal titration calorimetry. In kind it is binding.

On to `C[S+](CC[C@H](N)C(=O)O)C[C@H]1O[C@@H](n2cnc3c(N)ncnc32)[C@H](O)[C@@H]1O` (some centres unmarked) [SAM], for which the Kd at hNSun6 [1] was determined as 1.7 µM; at hNSun6 [2], 10.3 µM.

In general, Kd refers to the equilibrium constant for the complex coming apart. Low readings indicate higher affinity, high ones lower affinity.
